Results from patent US20240208968A1, “ALPHA V BETA 6 AND ALPHA V BETA 1 INTEGRIN INHIBITORS AND USES THEREOF” (DiCE Molecules SV, Inc., priority 2021, published 2024).

Key:
αvβ1 = αvβ1 (Homo sapiens, UniProt P05556+P06756); experiment: Solid Phase Integrin αvβ1 Assay; assay type: binding
Method in brief: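 Compound competes for αvβ1 binding to immobilized TGFb1-LAP (1 µg/mL coat) in Mn2+ (1 mM MnCl2), 2% BSA binding buffer over 90 min at room temperature, integrin added at 0.2 µg/mL. Read-out: streptavidin-HRP/TMB; IC50 from Levenberg-Marquardt four-parameter fit.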

αvβ6 = αvβ6 (Homo sapiens, UniProt P06756+P18564); experiment: Solid Phase Integrin αvβ6 Assay; assay type: binding
Method in brief: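 Inhibition of αvβ6 binding to immobilized recombinant TGFb1-LAP (1 μg/mL coating), 1 h at room temperature with 1 mM MnCl2 in BSA/TBST buffer, integrin diluted to 0.2 μg/mL before addition. Streptavidin-HRP/TMB read-out; four-parameter logistic fitting gave IC50.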

Sequence of αvβ1 (P06756 31-992 limits assumed): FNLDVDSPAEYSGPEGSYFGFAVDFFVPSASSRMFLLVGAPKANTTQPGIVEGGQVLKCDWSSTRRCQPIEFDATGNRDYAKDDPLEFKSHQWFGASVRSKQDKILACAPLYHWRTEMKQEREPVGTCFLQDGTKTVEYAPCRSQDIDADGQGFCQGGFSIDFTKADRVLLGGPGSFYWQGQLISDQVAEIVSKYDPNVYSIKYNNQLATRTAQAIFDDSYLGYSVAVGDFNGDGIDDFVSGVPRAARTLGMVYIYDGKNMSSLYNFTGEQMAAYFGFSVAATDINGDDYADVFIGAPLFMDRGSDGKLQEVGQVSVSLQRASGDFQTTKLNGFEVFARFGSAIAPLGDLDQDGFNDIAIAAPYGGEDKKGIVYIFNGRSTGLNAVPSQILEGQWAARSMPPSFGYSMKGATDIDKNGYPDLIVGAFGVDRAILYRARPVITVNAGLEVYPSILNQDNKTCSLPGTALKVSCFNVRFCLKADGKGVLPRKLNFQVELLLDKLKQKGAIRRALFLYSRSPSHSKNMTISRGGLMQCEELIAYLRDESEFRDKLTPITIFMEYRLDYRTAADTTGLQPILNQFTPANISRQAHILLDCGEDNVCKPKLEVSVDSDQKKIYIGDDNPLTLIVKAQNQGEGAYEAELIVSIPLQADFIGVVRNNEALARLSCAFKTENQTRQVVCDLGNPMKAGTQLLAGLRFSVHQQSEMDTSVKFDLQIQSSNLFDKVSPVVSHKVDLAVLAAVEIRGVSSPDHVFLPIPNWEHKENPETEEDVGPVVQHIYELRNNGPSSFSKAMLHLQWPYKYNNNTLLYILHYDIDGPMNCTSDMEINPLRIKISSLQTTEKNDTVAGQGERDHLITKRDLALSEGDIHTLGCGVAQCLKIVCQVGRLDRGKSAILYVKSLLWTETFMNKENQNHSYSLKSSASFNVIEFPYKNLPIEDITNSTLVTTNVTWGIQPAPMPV
Sequence of αvβ1 (P05556 21-728 limits assumed): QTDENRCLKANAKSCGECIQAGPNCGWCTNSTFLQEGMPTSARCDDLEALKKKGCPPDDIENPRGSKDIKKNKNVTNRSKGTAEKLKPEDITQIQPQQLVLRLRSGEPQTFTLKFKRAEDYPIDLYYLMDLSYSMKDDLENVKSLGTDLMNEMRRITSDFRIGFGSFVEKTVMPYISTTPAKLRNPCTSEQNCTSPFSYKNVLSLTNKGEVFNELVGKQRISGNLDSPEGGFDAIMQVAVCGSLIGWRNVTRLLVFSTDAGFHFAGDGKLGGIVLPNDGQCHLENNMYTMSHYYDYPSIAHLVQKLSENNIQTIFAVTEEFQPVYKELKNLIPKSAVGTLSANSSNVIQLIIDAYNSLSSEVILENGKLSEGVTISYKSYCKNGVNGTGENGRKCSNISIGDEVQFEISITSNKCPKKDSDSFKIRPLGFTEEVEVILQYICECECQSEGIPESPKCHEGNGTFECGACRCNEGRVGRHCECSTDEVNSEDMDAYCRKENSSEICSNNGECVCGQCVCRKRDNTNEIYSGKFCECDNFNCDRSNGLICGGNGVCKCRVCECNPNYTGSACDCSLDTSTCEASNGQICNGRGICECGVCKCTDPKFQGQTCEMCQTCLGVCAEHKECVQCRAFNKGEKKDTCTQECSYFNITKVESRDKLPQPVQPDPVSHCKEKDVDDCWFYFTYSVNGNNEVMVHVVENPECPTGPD
Sequence of αvβ6 (P06756 31-992 limits assumed): as the sequence (P06756 31-992 limits assumed) above
Sequence of αvβ6 (P18564 22-707 limits assumed): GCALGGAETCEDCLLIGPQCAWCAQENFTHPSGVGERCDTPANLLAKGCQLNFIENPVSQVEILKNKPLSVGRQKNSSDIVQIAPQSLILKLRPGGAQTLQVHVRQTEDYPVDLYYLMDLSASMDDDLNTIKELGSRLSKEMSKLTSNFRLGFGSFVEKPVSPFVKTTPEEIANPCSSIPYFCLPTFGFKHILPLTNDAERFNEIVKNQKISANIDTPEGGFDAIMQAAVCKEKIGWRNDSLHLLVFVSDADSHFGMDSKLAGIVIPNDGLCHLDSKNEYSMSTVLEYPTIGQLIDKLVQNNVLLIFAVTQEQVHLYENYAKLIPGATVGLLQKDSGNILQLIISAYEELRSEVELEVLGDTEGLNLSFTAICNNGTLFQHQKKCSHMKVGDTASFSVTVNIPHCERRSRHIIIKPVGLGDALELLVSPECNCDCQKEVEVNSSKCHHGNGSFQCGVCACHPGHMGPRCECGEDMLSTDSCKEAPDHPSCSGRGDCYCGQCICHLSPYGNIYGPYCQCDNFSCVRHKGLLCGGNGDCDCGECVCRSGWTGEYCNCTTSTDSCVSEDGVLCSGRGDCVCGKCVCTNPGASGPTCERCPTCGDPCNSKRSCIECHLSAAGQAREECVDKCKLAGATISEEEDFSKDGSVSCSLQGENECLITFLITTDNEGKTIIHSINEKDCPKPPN

Row | SMILES | IC50 (αvβ1) [nM] | IC50 (αvβ6) [nM]
1 | C[C@@H]1C[C@H](C(=O)NC[C@@H](C(=O)O)c2ccc3ccccc3c2)CN(CCCc2ccc3c(n2)NCCC3)C1 [Compound 641] | 100 to 1000 | 100 to 1000
2 | C[C@@H]1C[C@H](C(=O)NC[C@@H](C(=O)O)c2cccc(-c3ccccc3)c2)CN(CCCc2ccc3c(n2)NCCC3)C1 [Compound 642] | > 1000 | > 1000
3 | C[C@H]1C[C@H](C(=O)NC[C@@H](C(=O)O)c2ccc3ccccc3c2)CN(CCCc2ccc3c(n2)NCCC3)C1 [Compound 643] | < 100 | < 100
4 | C[C@H]1C[C@H](C(=O)NC[C@@H](C(=O)O)c2cccc(-c3ccccc3)c2)CN(CCCc2ccc3c(n2)NCCC3)C1 [Compound 644] | 100 to 1000 | 100 to 1000
5 | C[C@H]1C[C@@H](C(=O)NC[C@@H](C(=O)O)c2ccc3ccccc3c2)CN(CCCc2ccc3c(n2)NCCC3)C1 [Compound 645] | 100 to 1000 | > 1000
6 | C[C@H]1C[C@@H](C(=O)NC[C@@H](C(=O)O)c2cccc(-c3ccccc3)c2)CN(CCCc2ccc3c(n2)NCCC3)C1 [Compound 646] | > 1000 | 100 to 1000
7 | CC1(C)CN(c2cc([C@@H](CO[C@@H]3CCCN(CCCc4ccc5c(n4)NCCC5)C3)CC(=O)O)ccc2Cl)CCO1 [Compound 647] | < 100 | < 100

Further lines, results first:

Row | IC50 (αvβ1) [nM] | IC50 (αvβ6) [nM] | SMILES
8 | 100 to 1000 | 100 to 1000 | CC1(C)CN(c2cc([C@H](CO[C@@H]3CCCN(CCCc4ccc5c(n4)NCCC5)C3)CC(=O)O)ccc2Cl)CCO1 [Compound 648]
9 | < 100 | < 100 | O=C(O)C[C@@H](CO[C@@H]1CCCN(CCCc2ccc3c(n2)NCCC3)C1)c1cncc(N2CCC(F)(F)CC2)c1 [Compound 649]
10 | < 100 | < 100 | CC1(C)CN(c2cc(Cl)cc(C(CO[C@@H]3CCCN(CCCc4ccc5c(n4)NCCC5)C3)CC(=O)O)c2)CCO1 (stereo partly drawn) [Compound 650]
11 | < 100 | < 100 | CC1(C)CN(c2cccc([C@H](CO[C@@H]3CCCN(CCCc4ccc5c(n4)NCCC5)C3)CC(=O)O)c2)CCC1(F)F [Compound 651]
12 | < 100 | < 100 | CC1(C)CN(c2cccc([C@@H](CO[C@@H]3CCCN(CCCc4ccc5c(n4)NCCC5)C3)CC(=O)O)c2)CCC1(F)F [Compound 652]
